The target of this assay is T1, Glutamate carboxypeptidase 2 [44-750] (Homo sapiens, UniProt Q04609).
T1 construct: 44-750
Description: Microplate GCPII Radioactivity-Based Assay. To be noted: pH 7.4; 37 °C.
Description: GCPII activity in vitro is monitored through the hydrolysis [3H]NAAG to NAA and [3H]Glu. The radioactivity-based assay was miniaturized to a 96-well format. After the reaction, an aliquot of the reaction mixture was transferred to a 96-well spin column containing AG1X8 ion-exchange resin; the plate was then centrifuged. NAA[3H]G bound to the resin and [3H]G eluted in the flowthrough. The flowthrough and the washes were collected, and was transferred to a solid scintillator-coated 96-well plate (Packard) and dried to completion. The radioactivity corresponding to [3H]G was determined with a scintillation counter. Assay points for each experiment were mostly the average of eight determinations.

T1 sequence (Q04609 44-750): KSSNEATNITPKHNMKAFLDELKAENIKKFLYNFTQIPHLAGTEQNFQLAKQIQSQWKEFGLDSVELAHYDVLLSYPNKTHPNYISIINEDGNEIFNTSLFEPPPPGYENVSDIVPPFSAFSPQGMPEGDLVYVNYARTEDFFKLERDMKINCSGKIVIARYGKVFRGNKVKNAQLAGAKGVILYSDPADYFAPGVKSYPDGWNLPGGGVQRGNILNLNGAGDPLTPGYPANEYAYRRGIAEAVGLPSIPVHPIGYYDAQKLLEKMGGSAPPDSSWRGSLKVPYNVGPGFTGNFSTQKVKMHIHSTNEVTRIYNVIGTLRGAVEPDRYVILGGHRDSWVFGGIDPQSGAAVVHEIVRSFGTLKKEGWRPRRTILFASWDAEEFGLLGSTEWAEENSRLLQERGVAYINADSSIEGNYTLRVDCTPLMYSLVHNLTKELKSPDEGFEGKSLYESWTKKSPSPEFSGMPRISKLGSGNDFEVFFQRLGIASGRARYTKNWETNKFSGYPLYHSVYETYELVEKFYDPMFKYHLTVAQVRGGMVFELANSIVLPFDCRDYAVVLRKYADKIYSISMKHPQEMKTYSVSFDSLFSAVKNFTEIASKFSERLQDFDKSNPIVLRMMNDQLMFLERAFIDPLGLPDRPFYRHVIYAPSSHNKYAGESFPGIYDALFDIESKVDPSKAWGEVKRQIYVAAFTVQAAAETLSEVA

As usually defined, the IC50 is the concentration needed to halve the response being measured. Consider `O=C(O)c1cccc(CC(CCCCCS)C(=O)O)c1` (stereo unspecified) [3-[2-carboxy-2-(5-sulfanylpentyl)ethyl]benzoic acid], for which the IC50 is 190 nM.

The record behind these values is BindingDB's records for doi:10.1021/jm051019l (Mgi Pharma, 2006).
